Measurements published in paper PMC5430895 (Scientific Reports, 2017).

Assays:
[1] = target: T1, hMATE1 (Homo sapiens, UniProt Q96FL8); experiment: Saracatinib uptake in hMATE1-expressing HEK293 cells (HPLC-UV); conditions: hMATE1-HEK293, 10 µM saracatinib, 10 min; not significantly different from WT
T1 sequence (Q96FL8 1-570): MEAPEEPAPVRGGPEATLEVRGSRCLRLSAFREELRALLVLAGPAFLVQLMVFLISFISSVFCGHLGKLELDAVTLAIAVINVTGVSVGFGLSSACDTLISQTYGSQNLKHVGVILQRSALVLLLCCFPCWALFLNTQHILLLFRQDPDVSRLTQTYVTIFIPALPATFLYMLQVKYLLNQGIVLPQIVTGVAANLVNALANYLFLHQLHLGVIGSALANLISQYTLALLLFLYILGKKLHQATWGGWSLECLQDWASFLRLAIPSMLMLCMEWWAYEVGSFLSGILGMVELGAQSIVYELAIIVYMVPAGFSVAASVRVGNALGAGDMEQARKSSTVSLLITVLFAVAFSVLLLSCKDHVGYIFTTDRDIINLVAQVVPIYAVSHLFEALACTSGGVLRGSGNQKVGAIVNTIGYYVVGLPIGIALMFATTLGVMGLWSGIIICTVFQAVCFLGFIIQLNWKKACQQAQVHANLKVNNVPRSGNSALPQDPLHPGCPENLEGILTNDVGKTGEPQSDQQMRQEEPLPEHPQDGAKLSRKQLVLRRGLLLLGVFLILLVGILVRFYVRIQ

[2] = target: T2, hOCT2 (Homo sapiens, UniProt O15244); experiment: Saracatinib uptake in hOCT2-overexpressing HEK293 cells (HPLC-UV); conditions: hOCT2-HEK293, 10 µM saracatinib, 10 min, difference of accumulation at 4 °C and 37 °C
T2 sequence (O15244 1-555): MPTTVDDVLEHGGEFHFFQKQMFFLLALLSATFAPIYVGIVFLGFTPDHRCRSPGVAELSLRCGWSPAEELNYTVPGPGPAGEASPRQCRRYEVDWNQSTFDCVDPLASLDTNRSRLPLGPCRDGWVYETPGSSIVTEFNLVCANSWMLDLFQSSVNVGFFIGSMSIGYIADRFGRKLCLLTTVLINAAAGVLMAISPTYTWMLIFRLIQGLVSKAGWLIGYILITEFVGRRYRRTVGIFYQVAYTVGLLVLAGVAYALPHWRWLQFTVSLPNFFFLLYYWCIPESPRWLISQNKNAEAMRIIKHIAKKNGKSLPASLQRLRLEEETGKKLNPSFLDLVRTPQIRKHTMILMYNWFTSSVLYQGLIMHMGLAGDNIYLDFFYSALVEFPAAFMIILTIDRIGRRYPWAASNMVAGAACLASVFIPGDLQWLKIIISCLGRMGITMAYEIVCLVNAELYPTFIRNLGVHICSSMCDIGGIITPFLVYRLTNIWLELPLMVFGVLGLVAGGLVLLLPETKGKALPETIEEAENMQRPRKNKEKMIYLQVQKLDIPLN

[3] = target: T3, hOCT3 (Homo sapiens, UniProt O75751); experiment: Saracatinib uptake in hOCT3-overexpressing HEK293 cells (HPLC-UV); conditions: hOCT3-HEK293, 10 µM saracatinib, 10 min, difference of accumulation at 4 °C and 37 °C
T3 sequence (O75751 1-556): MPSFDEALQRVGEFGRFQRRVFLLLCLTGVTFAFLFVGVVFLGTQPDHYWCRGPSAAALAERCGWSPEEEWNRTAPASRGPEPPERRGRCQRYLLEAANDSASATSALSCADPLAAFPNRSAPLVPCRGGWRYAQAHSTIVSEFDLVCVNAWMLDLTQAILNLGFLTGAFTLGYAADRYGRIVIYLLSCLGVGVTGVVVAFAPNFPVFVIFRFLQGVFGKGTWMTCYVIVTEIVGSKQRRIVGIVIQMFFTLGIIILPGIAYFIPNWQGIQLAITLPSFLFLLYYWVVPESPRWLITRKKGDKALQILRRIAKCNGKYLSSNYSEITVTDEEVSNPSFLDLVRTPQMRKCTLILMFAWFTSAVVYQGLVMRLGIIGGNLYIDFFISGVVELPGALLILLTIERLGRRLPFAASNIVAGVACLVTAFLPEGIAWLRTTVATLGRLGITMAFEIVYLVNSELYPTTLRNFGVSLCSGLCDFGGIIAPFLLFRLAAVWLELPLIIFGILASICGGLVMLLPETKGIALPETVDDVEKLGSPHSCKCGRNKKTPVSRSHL

[4] = target: T4, hOCTN1 (Homo sapiens, UniProt Q9H015); experiment: Inhibition of ASP+ uptake in hOCTN1-HEK293 cells (apparent affinity); format: cell-based; set-up: expressed in transfected cells; host or cells: HEK293, expression induced with 1 mg/l doxycycline; conditions: hOCTN1-HEK293, ASP+ 1 µM
T4 sequence (Q9H015 1-551): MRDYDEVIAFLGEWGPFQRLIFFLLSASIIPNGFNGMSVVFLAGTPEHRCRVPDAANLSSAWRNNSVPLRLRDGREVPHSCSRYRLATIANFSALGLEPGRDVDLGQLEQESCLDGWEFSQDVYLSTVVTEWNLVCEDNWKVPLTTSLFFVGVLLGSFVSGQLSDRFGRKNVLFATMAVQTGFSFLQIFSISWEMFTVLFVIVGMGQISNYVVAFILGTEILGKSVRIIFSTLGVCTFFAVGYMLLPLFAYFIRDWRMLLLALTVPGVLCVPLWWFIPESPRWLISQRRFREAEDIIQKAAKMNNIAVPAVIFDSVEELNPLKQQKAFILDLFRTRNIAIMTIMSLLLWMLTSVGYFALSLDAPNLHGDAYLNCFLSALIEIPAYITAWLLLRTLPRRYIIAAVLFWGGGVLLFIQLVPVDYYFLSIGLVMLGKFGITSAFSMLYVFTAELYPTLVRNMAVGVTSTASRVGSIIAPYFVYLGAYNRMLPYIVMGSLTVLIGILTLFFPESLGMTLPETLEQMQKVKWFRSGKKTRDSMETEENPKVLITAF

[5] = target: T2, hOCT2; experiment: Inhibition of ASP+ uptake in hOCT2-HEK293 cells (apparent affinity); format: cell-based; set-up: expressed in transfected cells; host or cells: HEK293; conditions: hOCT2-HEK293, ASP+ 1 µM

saracatinib accumulation (specific uptake) [1]: 2.3 ± 0.7 nmol/mg protein
saracatinib accumulation (specific uptake) [2]: 7.0 ± 0.5 nmol/mg protein
saracatinib accumulation (specific uptake) [3]: 5.7 ± 0.1 nmol/mg protein
IC50 [4]: 72 nM
IC50 [5]: 900 nM
SMILES: CN1CCN(CCOc2cc(OC3CCOCC3)c3c(Nc4c(Cl)ccc5c4OCO5)ncnc3c2)CC1 [saracatinib, N-(5-chloro-1,3-benzodioxol-4-yl)-7-[2-(4-methylpiperazin-1-yl)ethoxy]-5-(tetrahydro-2H-pyran-4-yloxy)quinazolin-4-amine]
